{"source": "patent US11607421B2", "about": "“Ethanolamine-based lipid biosynthetic compounds, method of making and use thereof” (Metanoi Therapeutics, Inc., priority 2016, dated 2023)", "key": {"PC-3 cells [1]": {"tested_on": "PC-3 cells", "assay": "Annexin V binding assay (flow cytometry)", "type": "cell-based, human", "details": "2.0 mg/ml Etn", "method": "Annexin V binding assays were performed for control and 2.0 mg/ml Etn-treated cells along with counterstaining with 7-AAD to distinguish between dead and apoptotic cells. Annexin V positive cells were analyzed using flow cytometry. Representative scatter plots for control and Etn-treated cells stained with 7-AAD and annexin V are shown.\nAnnexin-V is known to bind to phosphatidylserine (PS) lipids which flip to the outer leaflet of plasma membrane in apoptotic cells (Vermes I. et al., J. Immunol. Methods, 1995, vol. 184, pp. 39-51). Annexin-V binding to PS is therefore a good indicator of cells undergoing apoptosis."}, "C4-2B": {"tested_on": "C4-2B", "assay": "MTT cell proliferation assay", "type": "cell-based", "details": "0.5 mg/ml Etn, 48 h; range given for PC-3, DU145 and C4-2B together", "method": "(§1) After 48 h, drug containing medium was replaced by medium containing MTT (tetrazolium bromide) at a concentration of 0.5 mg/ml. The yellow tetrazolium salt is reduced to insoluble purple formazan by viable cells. After 4 h of incubation in dark, formazan crystals produced by viable cells were dissolved by 200 μl DMSO and the amount of formazan crystals formed was quantified by recording the absorbance at 570 nm using multi-well plate reader. […] After 10 days, colonies were fixed with 4% formaldehyde, stained with crystal violet and counted."}, "OVCAR-5": {"tested_on": "OVCAR-5", "assay": "MTT cell proliferation assay", "type": "cell-based", "details": "Homo sapiens, 48 h, pH 7.4", "method": "as §1"}, "CFPAC-1": {"tested_on": "CFPAC-1", "assay": "MTT cell proliferation assay", "type": "cell-based", "details": "Homo sapiens, 48 h, pH 7.4", "method": "as §1"}, "MDA-MB-468": {"tested_on": "MDA-MB-468", "assay": "MTT cell proliferation assay", "type": "cell-based", "details": "Homo sapiens, 48 h, pH 7.4", "method": "as §1"}, "[2]": {"tested_on": "p53, p21, Bax, pBcl-2, c-PARP, Bim, Bid, HIF1-α", "assay": "Immunoblot of PC-3-luc tumor lysates", "type": "in vivo, mice", "method": "OCR was measured using an oxygen electrode.\nSince p21, Bax and pBcl2 are downstream effectors of p53, p53 expression levels were examined in control and Etn-treated tumors, as well as control and Etn-treated PC-3 cells.\nTo test this hypothesis, HIF1-α expression levels were analyzed in Etn-treated tumors and PC-3 cells. […] DMOG, an HIF1-α activator, was then employed to test whether Etn-mediated cell death in PC-3 cells was associated with HIF1-α stabilization (active HIF1-α signaling).\nProteins were resolved by polyacrylamide gel electrophoresis and transferred onto polyvinylidene difluoride membranes (Millipore, Billerica, Mass., USA). The membranes were blocked in Tris-buffered saline containing 0.05% Tween-20 and 5% fat-free dry milk and incubated first with primary antibodies and then with horseradish peroxidase-conjugated secondary antibodies. Specific proteins were visualized with enhanced chemiluminescence detection reagent according to the manufacturer's instructions (Pierce Biotechnology, Rockford, Ill., USA)."}, "CK KD PC-3 cells": {"tested_on": "CK KD PC-3 cells", "assay": "MTT assay in choline kinase knock down cells (siRNA)", "type": "cell-based", "details": "Homo sapiens, PC-3, 48 h; read-out: decrease in cell viability", "excerpt": "(Panel D) Choline kinase expression in prostate cancer cell lines (PC-3, DU145 and C42B) and normal prostate cell line (RWPE-1). GAPDH was used as a loading control. (Panel E) Scatter-plot comparing choline kinase expression in normal and cancer tissue from prostate cancer patients (p=0.002). The p value for statistical significance was set up as 0.05, while the fold change was defined as mean of all individual data points of analyzed datasets. (Panel Fi) Micrographs showing immunohistochemical staining of choline kinase enzyme in normal and cancer tissue from prostate cancer patients. (Panel Fii) Quantification (composite score) of choline kinase expression in normal and cancer tissue from prostate cancer patient. Five normal and five cancer tissue cases on TMA were scored for choline kinase staining percentage and intensity and composite scores were calculated using two parameters. As shown in these figures, choline kinase enzyme is highly expressed in cancer tissue as opposed to normal tissue.\nA siRNA approach was further employed to confirm the role of CK in Etn-induced cell death."}, "[3]": {"assay": "Stability in simulated gastric fluid (SGF)", "type": "in vitro ADME", "details": "10 μM, SGF pH 1.2, over 1 h", "method": "(§2) Samples (100 μl) were drawn at 0, 15, 30 and 60 min from SGF reaction-vials and at 0, 30, 60 and 120 min from SIF reaction-vials, quenched with acetonitrile, vortex-mixed, and centrifuged before supernatant analysis by LC-MS/MS analysis. […] For PK studies, a sparse sampling design with 3 mice per time point was used to collect blood samples at 5, 10, 15, 30 min and 1, 2, 3, 4, 5 and 6 h in K2EDTA-coated tubes. The pharmacokinetic parameters (AUClast, Cmax, CL and Vss) were calculated using non-compartmental analysis tool of Phoenix WinNonlin software (version 6.3).\n(§3) Given the extreme pH and various digestive enzymes, the GI tract presents a harsh environment to any ingested xenobiotic. Thus, many potential drug candidates are degraded in the GI tract, explaining their decreased bioavailability or inability to reach the target at effective concentrations. Simulated gastric fluid (SGF; pH 1.2) and simulated intestinal fluid (SIF; pH 6.8) closely mimic the GI tract environment and are amenable in vitro systems to evaluate degradation of a compound in GI tract (US Pharmacopoia).\n(§4) Simulated gastric fluid was prepared as per U.S. Pharmacopeia (USP) methods. Sodium chloride (2 g) and pepsin (3.2 g, from porcine stomach mucosa) were dissolved in 7.0 ml hydrochloric acid and Milli-Q water to make up the volume to 1000 ml and the pH was adjusted to 1.2. […]"}, "CYP2B6": {"biological_target": "CYP2B6 (Homo sapiens, UniProt P20813)", "sequence (P20813 whole entry)": "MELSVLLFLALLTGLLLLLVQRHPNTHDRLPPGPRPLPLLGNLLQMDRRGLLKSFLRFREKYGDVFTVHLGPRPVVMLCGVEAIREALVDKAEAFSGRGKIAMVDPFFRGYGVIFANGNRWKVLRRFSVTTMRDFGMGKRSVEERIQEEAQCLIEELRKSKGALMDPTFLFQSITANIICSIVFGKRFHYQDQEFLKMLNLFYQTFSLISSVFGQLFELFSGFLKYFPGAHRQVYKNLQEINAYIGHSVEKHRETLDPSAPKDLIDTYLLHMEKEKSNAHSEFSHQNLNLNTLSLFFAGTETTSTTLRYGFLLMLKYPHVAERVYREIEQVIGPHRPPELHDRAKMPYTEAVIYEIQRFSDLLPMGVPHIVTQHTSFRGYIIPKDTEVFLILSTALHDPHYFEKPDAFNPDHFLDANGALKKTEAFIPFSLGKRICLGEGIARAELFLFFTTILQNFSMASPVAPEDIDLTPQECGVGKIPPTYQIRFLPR", "assay": "CYP inhibition in human liver microsomes"}, "RWPE-1": {"tested_on": "RWPE-1", "assay": "MTT cell proliferation assay, normal prostate cells", "type": "cell-based", "details": "0.5 mg/ml Etn, 48 h", "method": "as §1"}, "PC-3 cells [4]": {"tested_on": "PC-3 cells", "assay": "Intracellular levels of Etn and PhosE by LC-MS/MS", "type": "cell-based, human", "details": "1 mg/ml, 48 h, pH 7.4"}, "CYP1A2": {"biological_target": "CYP1A2 (Homo sapiens, UniProt P05177)", "sequence (P05177 whole entry)": "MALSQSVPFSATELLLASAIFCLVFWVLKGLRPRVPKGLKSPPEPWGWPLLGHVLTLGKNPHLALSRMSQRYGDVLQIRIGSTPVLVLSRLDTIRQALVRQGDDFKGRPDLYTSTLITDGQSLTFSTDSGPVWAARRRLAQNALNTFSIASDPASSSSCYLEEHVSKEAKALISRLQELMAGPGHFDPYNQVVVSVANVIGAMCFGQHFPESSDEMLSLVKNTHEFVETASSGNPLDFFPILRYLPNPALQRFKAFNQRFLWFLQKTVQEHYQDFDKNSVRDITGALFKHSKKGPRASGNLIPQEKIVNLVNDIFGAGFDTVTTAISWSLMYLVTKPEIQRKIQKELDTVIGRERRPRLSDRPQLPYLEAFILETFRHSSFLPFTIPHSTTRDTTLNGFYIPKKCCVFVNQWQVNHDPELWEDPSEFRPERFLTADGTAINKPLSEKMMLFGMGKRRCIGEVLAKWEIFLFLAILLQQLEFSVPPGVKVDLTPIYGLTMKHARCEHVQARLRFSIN", "assay": "CYP inhibition in human liver microsomes"}, "[5]": {"assay": "Stability in simulated intestinal fluid (SIF)", "type": "in vitro ADME", "details": "10 μM, SIF pH 6.8, over time (to 120 min)", "method": "as §2, §3, §4"}, "CYP2E1": {"biological_target": "CYP2E1 (Homo sapiens, UniProt P05181)", "sequence (P05181 whole entry)": "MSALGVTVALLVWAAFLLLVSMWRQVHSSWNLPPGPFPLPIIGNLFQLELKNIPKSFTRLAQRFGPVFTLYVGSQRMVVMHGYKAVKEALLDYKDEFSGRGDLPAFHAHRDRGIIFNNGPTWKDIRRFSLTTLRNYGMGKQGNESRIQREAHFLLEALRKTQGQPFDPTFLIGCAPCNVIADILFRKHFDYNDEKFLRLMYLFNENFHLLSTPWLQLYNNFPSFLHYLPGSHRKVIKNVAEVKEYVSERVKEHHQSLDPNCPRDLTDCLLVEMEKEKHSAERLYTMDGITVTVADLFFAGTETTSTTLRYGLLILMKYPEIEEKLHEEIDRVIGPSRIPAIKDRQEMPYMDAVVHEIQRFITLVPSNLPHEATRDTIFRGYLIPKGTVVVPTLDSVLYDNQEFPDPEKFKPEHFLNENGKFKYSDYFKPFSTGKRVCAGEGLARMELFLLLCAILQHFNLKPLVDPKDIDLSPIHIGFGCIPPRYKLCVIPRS", "assay": "CYP inhibition in human liver microsomes"}}, "data": [{"compound": "NCCO", "note": "[Etn, monoethanolamine]", "values": [{"measurement": "annexin-V positive cells", "setting": "PC-3 cells [1]", "value": "~25", "unit": "%"}, {"measurement": "reduction of survival", "setting": "C4-2B", "value": "30-52%"}, {"measurement": "IC50", "setting": "OVCAR-5", "value": 290, "unit": "µg/mL"}, {"measurement": "IC50", "setting": "CFPAC-1", "value": 1900, "unit": "µg/mL"}, {"measurement": "IC50", "setting": "MDA-MB-468", "value": 550, "unit": "µg/mL"}, {"measurement": "expression of cell-cycle and apoptotic markers in tumor lysates", "setting": "[2]; 40 mg/kg Etn-treated mice", "value": "upregulated p21, Bax, pBcl2 c-PARP, Bim and Bid"}, {"measurement": "p53 protein level in tumors", "setting": "[2]; 40 mg/kg Etn-treated mice", "value": "higher levels of p53 protein than untreated control tumors"}, {"measurement": "HIF1-α protein expression in tumors", "setting": "[2]; Etn-treated tumors relative to untreated control tumors", "value": "Downregulation of HIF1-α protein expression"}, {"measurement": "cytotoxicity at 500 µg/mL", "setting": "CK KD PC-3 cells", "value": "~11", "unit": "%"}, {"measurement": "stability in SGF", "setting": "[3]", "value": "stable"}, {"measurement": "IC50", "setting": "CYP2B6", "value": "> 100", "unit": "µM"}, {"measurement": "reduction of survival", "setting": "RWPE-1", "value": "remained unaffected"}, {"measurement": "increase in intracellular PhosE levels compared to control cells", "setting": "PC-3 cells [4]", "value": "~40", "unit": "fold"}, {"measurement": "IC50", "setting": "CYP1A2", "value": "> 100", "unit": "µM"}, {"measurement": "stability in SIF", "setting": "[5]", "value": "remained unchanged"}, {"measurement": "IC50", "setting": "CYP2E1", "value": "> 100", "unit": "µM"}]}]}
